The values below come from patent US12295936B2, “Immunomodulating urea azalides” (Zoetis Services LLC, priority 2020, dated 2025).

Like-named read-outs stand apart in the source and are kept apart here.

One assay has as its system P. multocida 46572. Kind of assay: In vivo mouse lung infection challenge model (murine efficacy). Particulars: 20 mg/kg subcutaneous, P. multocida challenge; harmonized against the comparative vehicle survival rate. Also noted: species or system CD-1 female mice. As to the method:
The challenge organism was P. multocida 46572. Target challenge concentration was 5×10^2 CFU/mouse. Isolated colonies from overnight growth (37° C. with 5% CO2) on trypticase soy agar (TSA II) blood plates were transferred to room temperature Brain Heart Infusion Broth (BHIB). The broth culture was incubated 3.5-4 hours to approximately mid-log phase of growth, as measured by forward light scatter at 600 nm (OD600, 0.200). The culture was centrifuged to collect the bacterial pellet. The pellet was re-suspended in BHIB and adjusted to provide an approximate concentration of 2.7 log^10 colony forming units (CFU) in 0.04 mL at the highest concentration. The challenge inoculum concentration was confirmed by serial dilutions of the inoculum for CFU enumeration. On Day −5, CD-1 female mice were received. Mice were given standard rodent diet and water ad libitum. On Day 0, bacterial inoculum (0.04 mL) was administered to each mouse (n=36) intranasally. Compounds of the invention were dosed at 20 mg/kg (0.1 mL) in a buffered (˜pH 5.4) propylene glycol, monothioglycerol and water solution by subcutaneous injection. Animals were observed from Days 1-10. The study was terminated on Day 10. In addition, some treatment groups were sampled at 6, 24, and 48 hours post bacterial challenge for RNA sequence analysis of lung tissue.
The murine efficacy model (P. multocida challenge) was optimized, and the treatment group size was powered to be able to observe statistically significant improvement of survival to expected ranges for immunomodulatory compounds. The experimental design was a randomized complete block design. Mice were individually identified and treatment groups comingled within a cage, with every treatment group equally represented across cages. Mortality was the primary variable. Mortality data was analyzed using a generalized mixed model with fixed effect of treatment and random effect of block. Survival time was also analyzed using the SAS PHREG (survival analysis) procedure to examine whether there were significant differences between treatment groups and the control group. Numerous compounds of the invention and M9 (positive control) were tested in this model at a dose of 20 mg/kg. Typical percent survival for no treatment control is in the range of 0-20% based on study to study variation in challenge inoculum and rate of infection. […] Mouse survival for M9 was about 90-100%, further supporting its antibacterial properties against the bacterial strain (Table 3). Survival values presented are harmonized against the comparative vehicle survival rate.

Assay [1] has as its system BRD pathogens, M. haemolytica and P. multocida. Kind of assay: MIC screening panel of BRD pathogens (antibacterial / non-antibacterial).
For a further assay, the system named is IL-1β. Kind of assay: LPS-stimulated whole bovine blood assay, MSD cytokine detection. Type of assay: cell-based. Particulars: overstimulation of IL-1β, LPS-stimulated bovine whole blood.
A further assay concerns TNF-α. The assay is described as above. It is filed as cell-based. Particulars: Bos taurus, read-out: TNF-α (IC50 μM).
The subject of another assay is IL-6. The assay is described as above. Type of assay: cell-based. Particulars: Bos taurus, read-out: IL-6 (IC50 μM). From the text:
In order to correlate RNA sequencing data to cytokine changes the whole blood assay was utilized. […] The enhancement result represents an overall stimulation of cytokine levels due to cellular stress or potential toxicity with increasing concentrations of the compound, representing a typical bell shape response curve for immunomodulatory activity.

Setting [2] is: read-out: antibacterial / non-antibacterial (MIC for the BRD pathogens).
Setting [3] is: LPS-stimulated bovine whole blood.
Where [4] appears, read: read-out: MIC ≤64 μg/mL for at least one of the bacterial strains (flag * at Ex #).

Take `CC[C@H]1OC(=O)[C@H](C)[C@@H](O[C@H]2C[C@@](C)(OC)[C@@H](O)[C@H](C)O2)[C@H](C)[C@@H](O[C@@H]2O[C@H](C)C[C@H](N(C)C(=O)N(C)c3ccccc3)[C@H]2O)[C@](C)(O)C[C@@H](C)CN(C)[C@H](C)[C@@H](O)[C@]1(C)O` [Example B-5, 1-((2S,3R,4S,6R)-2-(((2R,3S,4R,5R,8R,10R,11R,12S,13S,14R)-2-ethyl-3,4,10-trihydroxy-13-(((2R,4R,5S,6S)-5-hydroxy-4-methoxy-4,6-dimethyltetrahydro-2H-pyran-2-yl)oxy)-3,5,6,8,10,12,14-heptamethyl-15-oxo-1-oxa-6-azacyclopentadecan-11-yl)oxy)-3-hydroxy-6-methyltetrahydro-2H-pyran-4-yl)-1,3-dimethyl-3-phenylurea]: the “Mouse Murine Percent Survival” value with P. multocida 46572 is <1%.
Take `CCCNC[C@]1(O)[C@H](C)O[C@@H](O[C@H]2[C@H](C)[C@@H](O[C@@H]3O[C@H](C)C[C@H](N(C)C(=O)N(c4ccccc4)C4CC4)[C@H]3O)[C@](C)(O)C[C@@H](C)CN[C@H](C)[C@@H](O)[C@](C)(O)[C@@H](CC)OC(=O)[C@@H]2C)C[C@@]1(C)OC` [Example H-14, 1-cyclopropyl-3-((2S,3R,4S,6R)-2-(((2R,3S,4R,5R,8R,10R,11R,12S,13S,14R)-2-ethyl-3,4,10-trihydroxy-13-(((2R,4R,5S,6S)-5-hydroxy-4-methoxy-4,6-dimethyl-5-((propylamino)methyl)tetrahydro-2H-pyran-2-yl)oxy)-3,5,8,10,12,14-hexamethyl-15-oxo-1-oxa-6-azacyclopentadecan-11-yl)oxy)-3-hydroxy-6-methyltetrahydro-2H-pyran-4-yl)-3-methyl-1-phenylurea]: in the assay on P. multocida 46572, the “Mouse Murine Percent Survival” value was 46%. For the same molecule, the MIC in assay [1] (setting [2]) is > 64 µg/mL.
As to `CC[C@H]1OC(=O)[C@H](C)[C@@H](O[C@H]2C[C@@](C)(OC)[C@](O)(CN3CC(F)(F)C3)[C@H](C)O2)[C@H](C)[C@@H](O[C@@H]2O[C@H](C)C[C@H](N(C)C(=O)N(C)c3ccccc3)[C@H]2O)[C@](C)(O)C[C@@H](C)CN[C@H](C)[C@@H](O)[C@]1(C)O` [Example J-15, 1-((2S,3R,4S,6R)-2-(((2R,3S,4R,5R,8R,10R,11R,12S,13S,14R)-13-(((2R,4R,5S,6S)-5-((3,3-difluoroazetidin-1-yl)methyl)-5-hydroxy-4-methoxy-4,6-dimethyltetrahydro-2H-pyran-2-yl)oxy)-2-ethyl-3,4,10-trihydroxy-3,5,8,10,12,14-hexamethyl-15-oxo-1-oxa-6-azacyclopentadecan-11-yl)oxy)-3-hydroxy-6-methyltetrahydro-2H-pyran-4-yl)-1,3-dimethyl-3-phenylurea], the “IL-1β OS of LPS” value in the assay on IL-1β is 16 µM. The IC50 in the assay with TNF-α (setting [3]) turned out to be 14 µM; with IL-6 (setting [3]) it was 28 µM. In assay [1] (setting [2]), the MIC is > 64 µg/mL.
With `CC[C@H]1OC(=O)[C@H](C)[C@@H](O[C@H]2C[C@@](C)(OC)[C@](O)(CN3CCC(F)(F)CC3)[C@H](C)O2)[C@H](C)[C@@H](O[C@@H]2O[C@H](C)C[C@H](N(C)C(=O)N(C)c3ccccc3)[C@H]2O)[C@](C)(O)C[C@@H](C)CN[C@H](C)[C@@H](O)[C@]1(C)O` [Example J-17, 1-((2S,3R,4S,6R)-2-(((2R,3S,4R,5R,8R,10R,11R,12S,13S,14R)-13-(((2R,4R,5S,6S)-5-((4,4-difluoropiperidin-1-yl)methyl)-5-hydroxy-4-methoxy-4,6-dimethyltetrahydro-2H-pyran-2-yl)oxy)-2-ethyl-3,4,10-trihydroxy-3,5,8,10,12,14-hexamethyl-15-oxo-1-oxa-6-azacyclopentadecan-11-yl)oxy)-3-hydroxy-6-methyltetrahydro-2H-pyran-4-yl)-1,3-dimethyl-3-phenylurea], the “IL-1β OS of LPS” value in the assay with IL-1β was determined as 40 µM. In addition, the half-maximal inhibitory concentration (IC50) amounted to 14 µM in the assay on TNF-α (setting [3]) and 25 µM with IL-6 (setting [3]). Also, the MIC in assay [1] (setting [4]) was < 64 µg/mL.
Turning to `CC[C@H]1OC(=O)[C@H](C)[C@@H](O[C@H]2C[C@@](C)(OC)[C@](O)(CN3CCCCC3)[C@H](C)O2)[C@H](C)[C@@H](O[C@@H]2O[C@H](C)C[C@H](N(C)C(=O)N(C)c3ccccc3)[C@H]2O)[C@](C)(O)C[C@@H](C)CN[C@H](C)[C@@H](O)[C@]1(C)O` [Example J-18, 1-((2S,3R,4S,6R)-2-(((2R,3S,4R,5R,8R,10R,11R,12S,13S,14R)-2-ethyl-3,4,10-trihydroxy-13-(((2R,4R,5S,6S)-5-hydroxy-4-methoxy-4,6-dimethyl-5-(piperidin-1-ylmethyl)tetrahydro-2H-pyran-2-yl)oxy)-3,5,8,10,12,14-hexamethyl-15-oxo-1-oxa-6-azacyclopentadecan-11-yl)oxy)-3-hydroxy-6-methyltetrahydro-2H-pyran-4-yl)-1,3-dimethyl-3-phenylurea], the “IL-1β OS of LPS” value in the assay with IL-1β is >250 µM. Also, the IC50 in the assay on TNF-α is 16 µM; with IL-6 it was 17 µM. In assay [1] (setting [4]), the MIC is < 64 µg/mL.
Consider `CC[C@H]1OC(=O)[C@H](C)[C@@H](O[C@H]2C[C@@](C)(OC)[C@](O)(CN3CCC(c4ccccc4)CC3)[C@H](C)O2)[C@H](C)[C@@H](O[C@@H]2O[C@H](C)C[C@H](N(C)C(=O)N(C)c3ccccc3)[C@H]2O)[C@](C)(O)C[C@@H](C)CN[C@H](C)[C@@H](O)[C@]1(C)O` [Example J-20, 1-((2S,3R,4S,6R)-2-(((2R,3S,4R,5R,8R,10R,11R,12S,13S,14R)-2-ethyl-3,4,10-trihydroxy-13-(((2R,4R,5S,6S)-5-hydroxy-4-methoxy-4,6-dimethyl-5-((4-phenylpiperidin-1-yl)methyl)tetrahydro-2H-pyran-2-yl)oxy)-3,5,8,10,12,14-hexamethyl-15-oxo-1-oxa-6-azacyclopentadecan-11-yl)oxy)-3-hydroxy-6-methyltetrahydro-2H-pyran-4-yl)-1,3-dimethyl-3-phenylurea], for which, in the assay on IL-1β, the “IL-1β OS of LPS” value was determined as 3 µM. For the same molecule, the figures for the IC50 with TNF-α (setting [3]) and in the assay with IL-6 (setting [3]) were 7 µM and 9 µM, respectively. Also, in assay [1] (setting [2]), the MIC was > 64 µg/mL.
For `CC[C@H]1OC(=O)[C@H](C)[C@@H](O[C@H]2C[C@@](C)(OC)[C@](O)(CN3CCC(S(C)(=O)=O)CC3)[C@H](C)O2)[C@H](C)[C@@H](O[C@@H]2O[C@H](C)C[C@H](N(C)C(=O)N(C)c3ccccc3)[C@H]2O)[C@](C)(O)C[C@@H](C)CN[C@H](C)[C@@H](O)[C@]1(C)O` [Example J-21, 1-((2S,3R,4S,6R)-2-(((2R,3S,4R,5R,8R,10R,11R,12S,13S,14R)-2-ethyl-3,4,10-trihydroxy-13-(((2R,4R,5S,6S)-5-hydroxy-4-methoxy-4,6-dimethyl-5-((4-(methylsulfonyl)piperidin-1-yl)methyl)tetrahydro-2H-pyran-2-yl)oxy)-3,5,8,10,12,14-hexamethyl-15-oxo-1-oxa-6-azacyclopentadecan-11-yl)oxy)-3-hydroxy-6-methyltetrahydro-2H-pyran-4-yl)-1,3-dimethyl-3-phenylurea], the “IL-1β OS of LPS” value in the assay on IL-1β stood at 20 µM. Moreover, the results for the half-inhibitory concentration (IC50) in the assay with TNF-α (setting [3]) and in the assay with IL-6 (setting [3]) were 65 µM and 75 µM, respectively. In assay [1] (setting [2]), the MIC is > 64 µg/mL.
As for `CC[C@H]1OC(=O)[C@H](C)[C@@H](O[C@H]2C[C@@](C)(OC)[C@](O)(Cn3ccnc3)[C@H](C)O2)[C@H](C)[C@@H](O[C@@H]2O[C@H](C)C[C@H](N(C)C(=O)N(C)c3ccccc3)[C@H]2O)[C@](C)(O)C[C@@H](C)CN[C@H](C)[C@@H](O)[C@]1(C)O` [Example J-24, 1-((2S,3R,4S,6R)-2-(((2R,3S,4R,5R,8R,10R,11R,12S,13S,14R)-13-(((2R,4R,5S,6S)-5-((1H-imidazol-1-yl)methyl)-5-hydroxy-4-methoxy-4,6-dimethyltetrahydro-2H-pyran-2-yl)oxy)-2-ethyl-3,4,10-trihydroxy-3,5,8,10,12,14-hexamethyl-15-oxo-1-oxa-6-azacyclopentadecan-11-yl)oxy)-3-hydroxy-6-methyltetrahydro-2H-pyran-4-yl)-1,3-dimethyl-3-phenylurea], in the assay with IL-1β, the “IL-1β OS of LPS” value is 100 µM. Also, the half-maximal inhibitory concentration (IC50) in the assay on TNF-α (setting [3]) was determined as 31 µM; in the assay with IL-6 (setting [3]), 99 µM. Also, the MIC in assay [1] (setting [2]) is > 64 µg/mL.
